SMILES strings stand for the structures.

Format in all cases: in vivo
One data set concerns mice. Nature of the data set: Acute toxicity in mice. As to conditions: oral, mice, 14 days. On the procedure:
(§1) The acute toxicity was determined in Chbb:NMRI (SPF)-mice of both sexes, having an average body weight of 20 gm. The test compounds were administered as a trituration in 1% methyl cellulose (0.5 ml/10 gm of animal) by means of an esophageal tube. The calculation of the LD50 values was effected according to the method of LITCHFIELD and WILCOXON [J. Pharmacol. Exp. Ther. 96, 99 (1949)], based on the percentage of animals which died within 14 days after administration of different doses.

Another data set in a line: Acute toxicity in mice. As to conditions: mouse, in vivo; Chbb:NMRI (SPF)-mice of both sexes, oral (esophageal tube), deaths within 14 days. The method, then: as §1
The next data set relates to heat pain of the mouse. In words: Effect on the heat sensitivity of the mouse (hot plate, 52° C.). The note with it: male Chbb:NMRI (SPF)-mice, oral (esophageal tube), dose increasing time of reaction by 100%. On the procedure: The test performed according to a modification of the method described by CHEN and BECKMAN [Science, 113, 631 (1951)] in male Chbb:NMRI (SPF)-mice with an average weight of 20 grams.
The test substances were administered as trituration in 1% methyl cellulose (0.1 ml/10 gm of mouse) by means of an esophageal tube. Before treatment with the test substance, the animals were twice put on the hot plate at an interval of 30 minutes, whereby their individual times of reaction were measured. After treatment with a test substance, the times of reaction of the animals were again measured in an interval of 30 minutes.
From the average maximum increase of the time of reaction obtained after treatment with different doses, and after linear regression analysis according to LINDER, an ED100 dose with the confidence limits according to FIELLER was calculated. The ED100 dose is one which increased the time of reaction by 100%.

For data set [1], the system named is inflammation pain of the rat. In words: Effect on the inflammation pain of the rat (Randall-Selitto, yeast-injected paw). As to conditions: male Chbb:THOM-rats, oral (esophageal tube), dose raising pain threshold by 50% vs controls. On the procedure:
The test arrangement corresponded to that indicated by RANDALL-SELITTO [Arch. Int. Pharmacodyn. 111, 409 (1957)]. Male Chbb:THOM-rats having body weights of from 100 to 130 grams received a subplantar injection of 0.1 ml of a 5% suspension of yeast cells in 5.55% glucose solution in a rear paw. At 11/2 and 21/4 hours, respectively, after injection of the phlogistic, the animals received various doses of the test substance as a trituration in 1% methyl cellulose (1 ml/100 g of animal) through an esophageal tube. Control animals received corresponding volumes of the vehicle.
Ninety and forty-five minutes, respectively, after application of the test substance (that is, three hours after the subplantar injection of the yeast suspension), the threshold pain was determined in the rat in terms of the […] of bearing pressure on a paw, based on the weight of the animals.
From the pain threshold, measured according to the different doses of the test substance, and with the linear regression analysis according to LINDER [Statistische Methoden, 4th ed., pp. 148-162, Birkhauser, Basel, 1964], and ED50 dose with the confidence limits according to FIELLER [Quart. J. Pharm. Pharmacol., 17, 117 (1944)] was determined. The ED50 dose is one in which the pain threshold rises by 50%, as compared to the controls.

Data set [2] concerns body temperature of the rat. Nature of the data set: Effect on the body temperature of the rat (antipyretic activity). The note with it: Chbb:THOM-rats, oral (esophageal tube), dose decreasing rectal body temperature by 1.5° C. On the procedure:
The temperature-lowering activity, i.e. antipyretic activity, was tested by the observation of the temperature curve given by rectally measured body temperatures of partially immobilized Chbb:THOM-rats having body weights of between 125 and 150 grams. The body temperatures were measured by thermocouples inserted into rectums. The test substances were administered as a trituration in a 1% methyl cellulose in portions of 1.0 ml/100 gm of animal using an esophageal tube.
From the values for the average maximum decline of temperature, which were gained after the administration of the different doses of the test substance, and after a linear regression analysis according to LINDER, an ED-1.5° C. was calculated with the confidence limits according to FIELLER as the dose which decreases the body temperature by 1.5° C.

The mark [3] stands for this setting: 0.75 h, After Forty-five Minutes.

Consider `Cc1cccc2sc(=O)[nH]c12` [F, 4-methyl-benzothiazol-2(3H)-one], for which, in the data set on mice (8000 mg/kg (footnote ** of Table 5)), the “animals died after administration of this dose” value is recorded as 4 out of 20 animals died. In “Acute toxicity in mice”, the LD50 at 336 h is 8000 mg/kg. In the data set with heat pain of the mouse, this compound had an ED100 of 113 mg/kg. For the same compound, the ED50 in data set [1] (setting [3]) is 174 mg/kg; in data set [1] (1.5 h, After Ninety Minutes) it was 202 mg/kg. The compound further displayed an ED (-1.5 C) in data set [2] of 118 mg/kg.
As to `O=c1[nH]c2ccc(Cl)cc2s1` [D, 6-chloro-benzothiazol-2(3H)-one], the median effective dose (ED50) in data set [1] (setting [3]) was determined as 175 mg/kg; in data set [1] (1.5 h, After Ninety Minutes) it was 129 mg/kg. In data set [2], this compound gave an ED (-1.5 C) of 103 mg/kg.
Take `O=c1[nH]c2ccc(F)cc2s1` [B, 6-fluoro-benzothiazol-2(3H)-one]: the LD50 at 336 h in the data set “Acute toxicity in mice” came to 1650 mg/kg. Also, the ED100 in the data set with heat pain of the mouse is 165 mg/kg. Besides, the ED50 turned out to be 121 mg/kg in data set [1] (setting [3]) and 76 mg/kg in data set [1] (1.5 h, After Ninety Minutes). In data set [2], this compound returned an ED (-1.5 C) of 83 mg/kg.
On to `O=c1[nH]c2c(Cl)cccc2s1` [H, 4-chloro-benzothiazol-2(3H)-one], for which the ED100 in the data set with heat pain of the mouse worked out at 125 mg/kg. Besides, the ED50 came out at 24 mg/kg in data set [1] (setting [3]) and 23 mg/kg in data set [1] (1.5 h, After Ninety Minutes). This compound also showed an ED (-1.5 C) in data set [2] of 16 mg/kg.
For the compound `O=c1[nH]c2cccc(Cl)c2s1` [C, 7-chloro-benzothiazol-2(3H)-one], in the data set on mice (10000 mg/kg (footnote * of Table 5)), the “survival of animals after administration of this dose” value is “all 10 animals survived”. The LD50 at 336 h in “Acute toxicity in mice” came out at 10000 mg/kg. In addition, the ED50 in data set [1] (setting [3]) worked out at 106 mg/kg; in data set [1] (1.5 h, After Ninety Minutes), 105 mg/kg.
As to `COc1ccc2sc(=O)[nH]c2c1` [A, 5-methoxy-benzothiazol-2(3H)-one], the LD50 at 336 h in “Acute toxicity in mice” is 1600 mg/kg. This compound displayed an ED100 with heat pain of the mouse of 218 mg/kg. For the same compound, the ED50 in data set [1] (setting [3]) came out at 90 mg/kg; in data set [1] (1.5 h, After Ninety Minutes) it was 150 mg/kg. Moreover, in data set [2], the ED (-1.5 C) is 58 mg/kg.
In turn, `Cc1ccc2sc(=O)[nH]c2c1` [G, 5-methyl-benzothiazol-2(3H)-one] registered an LD50 at 336 h in the data set “Acute toxicity in mice” of 2650 mg/kg. In addition, the ED100 with heat pain of the mouse was determined as 178 mg/kg. For the same compound, the ED50 in data set [1] (setting [3]) amounted to 103 mg/kg; in data set [1] (1.5 h, After Ninety Minutes), 97 mg/kg. This compound also came in with an ED (-1.5 C) in data set [2] of 37 mg/kg.
As to `COc1cc2[nH]c(=O)sc2cc1OC` [E, 5,6-dimethoxy-benzothiazol-2(3H)-one], in the data set on heat pain of the mouse, the ED100 was 92 mg/kg. The ED50 in data set [1] (setting [3]) worked out at 43 mg/kg; in data set [1] (1.5 h, After Ninety Minutes), 40 mg/kg. The same compound displayed an ED (-1.5 C) in data set [2] of 29 mg/kg.

Values taken from US4353919A, “Analgesic and antipyretic pharmaceutical compositions containing a benzothiazol-2(3H)-one” (Dr. Karl Thomae Gesellschaft mit beschrankter Haftung, priority 1980, dated 1982).
